{
  "source": "patent US6683028B1",
  "about": "“Cyclic guanidine derivatives and their use as pesticides” (Bayer Aktiengesellschaft, priority 1999, dated 2004)",
  "key": {"[1]": {"test_system": "mustard beetle larvae (Phaedon cochleariae)", "experiment": "Phaedon Larvae Test", "format": "in vivo", "conditions": "active compound concentration of 0.1%; after 7 days; cabbage leaves dipped", "experimental": "(§1) Solvent: 7 parts by weight of dimethylformamide\n(§2) Emulsifier: 1 part by weight of alkylaryl polyglycol ether\nTo produce a suitable preparation of active compound, 1 part by weight of active compound is mixed with the stated amount of solvent and the stated amount of emulsifier, and the concentrate is diluted with water to the desired concentration.\nCabbage leaves (Brassica oleracea) are treated by being dipped into the preparation of active compound of the desired concentration and are populated with mustard beetle larvae (Phaedon cochleariae) while the leaves are still moist.\nAfter the desired period of time, the kill in % is determined. 100% means that all beetle larvae have been killed; 0% means that none of the beetle larvae have been killed."}, "[2]": {"test_system": "peach aphid (Myzus persicae)", "experiment": "Myzus Test", "format": "in vivo", "conditions": "active compound concentration of 0.1%; after 6 days; cabbage leaves dipped", "experimental": "as §1, §2\nTo produce a suitable preparation of active compound, 1 part by weight of active ingredient is mixed with the stated amount of solvent and the stated amount of emulsifier, and the concentrate is diluted with water to the desired concentration.\nCabbage leaves (Brassica oleracea) which are heavily infested by the peach aphid (Myzus persicae) are treated by being dipped into the preparation of active compound of the desired concentration.\nAfter the desired period of time, the kill in % is determined. 100% means that all aphids have been killed; 0% means that none of the aphids have been killed."}, "[3]": {"experiment": "logP determination by HPLC (EEC directive 79/831 Annex V. A8)", "format": "physicochemical", "conditions": "pH = 2; HPLC gradient method, acetonitrile/0.1% aqueous phosphoric acid", "experimental": "[logP=the logP values were determined in accordance with EEC directive 79/831 Annex V. A8 by HPLC (gradient method, acetonitrile/0.1% aqueous phosphoric acid)]"}},
  "data": [
    {"molecule": "CCCOCN1COCN(Cc2cnc(Cl)s2)C1=N[N+](=O)[O-]", "note": "[Example 1, 3-(2-chloro-thiazol-5-yl-methyl)-4-nitroimino-5-n-propoxymethyl-perhydro-1,3,5-oxadiazine]", "values": [
      {"measurement": "kill", "setting": "[1]", "value": 100, "unit": "%"},
      {"measurement": "kill", "setting": "[2]", "value": 100, "unit": "%"},
      {"measurement": "chromatographic logP", "setting": "[3]", "value": 1.7}
    ]}
  ]
}
